Source: patent publication US20240335404A1, “SUBSTITUTED ESTERS CONTAINING POLYOLS AND SACCHARIDES FOR TREATING HEPATOTOXICITY AND FATTY LIVER DISEASES” (SINEW PHARMA INC., priority 2015, published 2024)

Tested on: Liver Injuries Induced by APAP
Assay: Liver injuries induced by APAP in rats (GSP, AST/ALT, HAI, survival)
Assay type: in vivo, SD (Sprague-Dawley) rats
Settings: APAP 2,000 mg/kg; for histological analysis of liver tissue, H&E: FIG. 4
Procedure: Male SD (Sprague-Dawley) rats weighing 175-280 g were purchased from the National Laboratory Animal Center (NLAC), Taiwan. The study was conducted in accordance with the Guidelines for Conducting Animal Studies of the National Health Research Institute and all rats were placed in the air/humidity controlled environment under the 12 hours of day/12 hours of night cycle and with unlimited water and food supply. During the course of the study, the weights of rats were monitored continuously with normal water supply.
In the normal control (Group 1), animals were not fed with APAP. In the control group of APAP-induced liver injuries (Group 2), animals were fed with a single dose of APAP in the amount of 2,000 mg per kilogram of body weight to induce hepatotoxicity. In the positive control group of treatment with NAC (Group 3), animals were fed with a single dose of APAP in the amount of 2,000 mg per kilogram of body weight to induce hepatotoxicity, and 4 hours later, a 24-hour treatment period by tube feeding was started, including first administration of 140 mg of NAC (per kilogram of body weight) and later administration of 70 mg of NAC (per kilogram of body weight) every 4 hours for five times. In the experimental group (Group 4), animals were fed with a single dose of APAP in the amount of 2,000 mg per kilogram of body weight to induce hepatotoxicity, and 4 hours later, a 24-hour treatment period by tube feeding was started, including six dosing with the ingredients of the present invention every 4 hours, as follows: • (a) (Group 4.1): administration of mannitol at a dose less than or equivalent to 100 mg per person every 4 hours for 24 hours, • (b) (Group 4.2): administration of double dose of mannitol as in Group 4.1 every 4 hours for 24 hours, • (c) (Group 4.3): administration of sucralose at a dose less than or equivalent to 100 mg per person every 4 hours for 24 hours, • (d) (Group 4.4): administration of double dose of sucralose of Group 4.3 every 4 hours for 24 hours, • (e) (Group 4.5): administration of a combination of 0.5 times the dose of mannitol as in Group 4.1 and 0.5 times the dose of sucralose as in Group 4.3 per kilogram of body weight every 4 hours for 24 hours, • (f) (Group 4.6): administration of a combination of the dose of mannitol as in Group 4.1 and the dose of sucralose as in Group 4.3 every 4 hours for 24 hours, • (g) (Group 4.7): administration of a combination of 1.5 times the dose of mannitol as in Group 4.1 and 1.5 times the dose of sucralose as in Group 4.3 every 4 hours for 24 hours, • (h) (Group 4.8): administration of a combination of double dose of mannitol as in Group 4.1 and double dose of sucralose as in Group 4.3 every 4 hours for 24 hours, and • (i) (Group 4.9): first administration of 140 mg of NAC per kilogram of body weight and later administration of a combination of 70 mg of NAC plus double dose of mannitol as in Group 4.1 and double dose of sucralose as in Group 4.3 every 4 hours for five times.
After the 24-hour treatment period, blood was collected from the tail artery of the rats for AST/SLT assays. Subsequently, rats were subjected to GSP tests. Finally, rats were sacrificed and histological analysis was performed.
After completion of the treatments, rats were sacrificed under ether anesthesia, and blood was collected from the tail artery of the rats and placed in a test tube containing EDTA. The plasma was centrifuged at 13,000 at 4° C. for 15 minutes and the isolated plasma was transferred to Eppendorf tubes in aliquots and stored at −80° C.
Liver damage is quantified by measuring plasma AST and ALT activity. AST and ALT are common indicators of hepatotoxicity and are measured by using the Synchron LXi 725 system (Beckman Instruments, U.S.).
Following scarification of the rats, histological analysis was performed.

[1] = dose less than or equivalent to 100 mg per person (mannitol, sucralose: × 6)
[2] = dose less than or equivalent to 100 mg per person (mannitol, sucralose: × 6), Day 14
[3] = double dose of Group 4.1 / Group 4.3, × 6
[4] = double dose of Group 4.1 / Group 4.3, × 6, Day 14

SMILES	effect on APAP-induced liver injuries and survival rate	histological analysis of liver tissue, H&E	ALT [1] [IU/L]	AST [1] [IU/L]	GSP [1] [mg/L]	Total HAI score [1]	Survival (Day 14, n/n) [2]	ALT [3] [IU/L]	AST [3] [IU/L]	GSP [3] [mg/L]	Total HAI score [3]	Survival (Day 14, n/n) [4]
OC[C@H]1O[C@H](O[C@]2(CCl)O[C@H](CCl)[C@@H](O)[C@@H]2O)[C@H](O)[C@@H](O)[C@H]1Cl [Sucralose]	liver injuries and survival rate can be improved	hepatocytes are relatively intact with visible nucleus and less vacuolization	154 ± 49	331 ± 41	332 ± 42	4.0 ± 1.0	3/3	136 ± 48	277 ± 78	309 ± 54	3.0 ± 1.0	3/3
OC[C@@H](O)[C@@H](O)[C@H](O)[C@H](O)CO [Mannitol]	liver injuries and survival rate can be improved	hepatocytes are relatively intact with visible nucleus and less vacuolization	209 ± 16	455 ± 78	565 ± 177	4.0 ± 0.0	1/3	166 ± 15	300 ± 40	354 ± 56	4.0 ± 1.0	3/3
